The values that follow come from ChEMBL document CHEMBL5143708, “New antimalarials identified by a cell-based phenotypic approach: Structure-activity relationships of 2,3,4,9-tetrahydro-1H-β-carboline derivatives possessing a 2-((coumarin-5-yl)oxy)alkanoyl moiety” (Bioorg Med Chem, 2022).

As usually defined, the IC50 is the concentration that gives 50% inhibition. The term AUC denotes concentration integrated over time. For orientation: Cmax means the maximum level reached in the sampled fluid or tissue. Broadly, the half-life is the time needed for the level to fall by half in the phase considered. Read a high half-life as slow decline. Broadly, the Tmax is the time from dosing to the highest level.

Active and inactive are the calls of the source.

The nature of series [1]: Cytotoxicity against human HL-60 cells assessed as reduction in cell viability after 48 hrs by Cell Count Reagent SF based assay. The class given is toxicity.
Series [2] deals with Plasmodium falciparum. In words: Antiplasmodial activity against Plasmodium falciparum 3D7 infected in human RBC assessed as reduction in parasite growth after 72 hrs by LDH assay. The format is functional, organism-based. The conditions noted are these: 3D7, Erythrocyte.
Series [3] is described as follows: AUC in ICR mouse at 40 mg/kg, ip. On the set-up: dose 40 mg/kg, route ip. The class given is ADME, organism-based. As to conditions: in vivo.
The nature of series [4]: Toxicity in ICR mouse infected with Plasmodium berghei ANKA assessed as decrease in body weight at 200 mg/kg, ip administered for 4 to 7 days after post-infection and measured on day 18 post-infection by Giemsa staining based microscopic analysis. The format is organism-based. The conditions noted are these: in vivo, 360 h, time 15 day.
Series [5] has as its system Plasmodium berghei. The series can be described thus: Antimalarial activity against Plasmodium berghei ANKA infected in ICR mouse assessed as increase in survival at 40 mg/kg, ip administered for 4 to 7 days after post-infection and measured on day 11 post-infection by Giemsa staining based microscopic analysis. The class given is functional, organism-based. As to conditions: time 8.0 day.

Series [6] can be described thus: Cmax in ICR mouse at 40 mg/kg, ip. As to conditions: in vivo. The format is ADME, organism-based. On the set-up: dose 40 mg/kg, route ip.
In series [7] the test system is Plasmodium berghei. The series can be described thus: Antimalarial activity against Plasmodium berghei ANKA infected in ICR mouse assessed as increase in body weight at 200 mg/kg, ip administered for 4 to 7 days after post-infection and measured on day 11 post-infection by Giemsa staining based microscopic analysis. The class given is functional, organism-based. The conditions noted are these: time 8.0 day.

In series [8] the test system is Plasmodium berghei. The series can be described thus: Antimalarial activity against Plasmodium berghei ANKA infected in ICR mouse assessed as increase in body weight at 40 mg/kg, ip administered for 4 to 7 days after post-infection by Giemsa staining based microscopic analysis. The class given is functional, organism-based. As to conditions: time 4-7 day.
Series [9] deals with Plasmodium berghei. The series can be described thus: Antimalarial activity against Plasmodium berghei ANKA infected in ICR mouse assessed as increase in survival at 200 mg/kg, ip administered for 4 to 7 days after post-infection and measured on day 19 post-infection by Giemsa staining based microscopic analysis. The class given is functional, organism-based. The conditions noted are these: time 16.0 day.

Series [10] deals with Plasmodium falciparum. The series can be described thus: Antiplasmodial activity against chloroquine-resistant Plasmodium falciparum Dd2 infected in human RBC assessed as reduction in parasite growth after 72 hrs by LDH assay. The format is functional, organism-based. As to conditions: Dd2, Erythrocyte.
For series [11], the system named is Plasmodium berghei. The series can be described thus: Antimalarial activity against Plasmodium berghei ANKA infected in ICR mouse assessed as reduction in parasitemia level at 40 to 200 mg/kg, ip administered for 4 to 7 days after post-infection by Giemsa staining based microscopic analysis. The format is functional, organism-based. As to conditions: dose 40-200 mg/kg, time 4-7 day.

Series [12] can be described thus: Toxicity in ICR mouse infected with Plasmodium berghei ANKA assessed as decrease in body weight at 200 mg/kg, ip administered for 4 to 7 days after post-infection by Giemsa staining based microscopic analysis. The class given is organism-based. As to conditions: in vivo, time 4-7 day.
Series [13] deals with Plasmodium falciparum. In words: Antiplasmodial activity against chloroquine-resistant Plasmodium falciparum K1 infected in human RBC assessed as reduction in parasite growth after 72 hrs by LDH assay. The class given is functional, organism-based. The conditions noted are these: K1, Erythrocyte.
Series [14] in a line: Half life in ICR mouse at 40 mg/kg, ip. As to conditions: in vivo. The class given is ADME, organism-based.
A short description of series [15]: Tmax in ICR mouse at 40 mg/kg, ip. The conditions noted are these: in vivo. The format is ADME, organism-based.

Take `CCCCc1cc(=O)oc2cc(C)cc(O[C@H](C)C(=O)N3Cc4[nH]c5ccccc5c4C[C@H]3C(=O)OCC)c12`: the IC50 at 48 h in series [1] was above 3000 nM. Further, the IC50 with Plasmodium falciparum [2] is 55 nM.

For `CCCCc1cc(=O)oc2cc(C)cc(OC(C(=O)N3Cc4[nH]c5ccccc5c4C[C@H]3C(=O)OC)C(C)C)c12` (some centres undefined), the IC50 at 48 h in series [1] was above 3000 nM. Further, the IC50 with Plasmodium falciparum [2] turned out to be 6.4 nM.

Turning to `COC(=O)[C@@H]1Cc2c([nH]c3ccccc23)CN1C(=O)[C@@H](C)Oc1cc(C)cc2oc(=O)cc(CC3CC3)c12`, the half-inhibitory concentration (IC50) at 48 h in [1] is above 3000 nM. For the same compound, in the series with Plasmodium falciparum [2], the IC50 was 3.5 nM.

Regarding `CCCCc1cc(=O)oc2cc(C)cc(O[C@H](C)C(=O)N3Cc4[nH]c5ccc(F)cc5c4C[C@H]3C(=O)OC)c12`, the IC50 at 48 h in series [1] was above 3000 nM. Moreover, the IC50 in the series with Plasmodium falciparum [2] came to 5.5 nM.

With `CCCCc1cc(=O)oc2cc(N3CCOCC3)cc(O[C@H](C)C(=O)N3Cc4[nH]c5ccccc5c4C[C@H]3C(=O)OC)c12`, in series [1], the IC50 at 48 h was above 3000 nM. Besides, the IC50 in the series on Plasmodium falciparum [2] is 210 nM.

In the case of `CCCCc1cc(=O)oc2cc(C)cc(OC(CCCC)C(=O)N3Cc4[nH]c5ccccc5c4C[C@H]3C(=O)OC)c12` (some centres undefined), the IC50 at 48 h in [1] was above 3000 nM. In the series with Plasmodium falciparum [2], the IC50 worked out at 10 nM.

In the case of `CCCCc1cc(=O)oc2cc(C)cc(O[C@H](C)C(=O)N3Cc4[nH]c5ccccc5c4C[C@H]3C(C)=O)c12`, the IC50 at 48 h in [1] was above 3000 nM. Moreover, in the series on Plasmodium falciparum [2], the IC50 stood at 5.6 nM.

Take `CCCCc1cc(=O)oc2cc(Br)cc(O[C@H](C)C(=O)N3Cc4[nH]c5ccccc5c4C[C@H]3C(=O)OC)c12`: the IC50 at 48 h in series [1] was above 3000 nM. Besides, the IC50 in the series on Plasmodium falciparum [2] was determined as 9.6 nM.

With `CCCCc1coc2cc(C)cc(O[C@H](C)C(=O)N3Cc4[nH]c5ccccc5c4C[C@H]3C#N)c12`, in [1], the IC50 at 48 h is above 3000 nM. In addition, the IC50 in the series on Plasmodium falciparum [2] worked out at 110 nM.

As to `CCCCc1coc2cc(C)cc(O[C@H](C)C(=O)N3Cc4[nH]c5ccccc5c4C[C@H]3C(=O)OC)c12`, the IC50 at 48 h in [1] was above 3000 nM. For the same compound, the IC50 in the series with Plasmodium falciparum [2] was found to be 220 nM.

`COC(=O)[C@@H]1Cc2c([nH]c3ccccc23)CN1C(=O)[C@@H](C)Oc1cc(C)cc2oc(=O)cc(C)c12`: the IC50 at 48 h in series [1] was above 3000 nM. Also, in the series with Plasmodium falciparum [2], the IC50 turned out to be 40 nM.

For the compound `CCCCc1cc(=O)oc2cc(C)cc(O[C@H](C)C(=O)N3CCc4c([nH]c5ccccc45)C3)c12`, in series [1], the 50% inhibitory concentration (IC50) at 48 h was above 3000 nM. In the series with Plasmodium falciparum [2], the IC50 amounted to 72 nM.

As to `CCCCc1cc(=O)oc2cccc(O[C@H](C)C(=O)N3Cc4[nH]c5ccccc5c4C[C@H]3C(=O)OC)c12`, in series [1], the IC50 at 48 h is above 3000 nM. In the series with Plasmodium falciparum [2], the IC50 stood at 4.1 nM.

With `CCc1cc(=O)oc2cc(C)cc(O[C@H](C)C(=O)N3Cc4[nH]c5ccccc5c4C[C@H]3C(=O)OC)c12`, the IC50 at 48 h in [1] is above 3000 nM. Besides, the IC50 with Plasmodium falciparum [2] came out at 11 nM.

Consider `CCCCc1cc(=O)oc2cc(C)cc(OCC(=O)N3Cc4[nH]c5ccccc5c4C[C@@H]3C(=O)OC)c12`, for which the 50% inhibitory concentration (IC50) at 48 h in [1] was above 3000 nM. For the same compound, the half-inhibitory concentration (IC50) with Plasmodium falciparum [2] stood at 980 nM.

Consider `CCCCc1cc(=O)oc2cc(C)cc(OC(C)C(=O)N3Cc4[nH]c5ccccc5c4C[C@H]3C(=O)OC)c12` (some centres undefined), for which the IC50 at 48 h in series [1] is above 3000 nM. In the series with Plasmodium falciparum [2], the IC50 turned out to be 6.8 nM.

For `CCCCc1cc(=O)oc2cc(C)cc(O[C@H](C)C(=O)N3Cc4[nH]c5ccccc5c4C[C@H]3C(=O)OC)c12`, the IC50 at 48 h in series [1] was above 3000 nM. The compound also displayed an AUC in [3] of 25600 ng·h/mL. The Activity entry in [4] and in series [12] was “Toxic” in each case. In addition, the outcome in the series with Plasmodium berghei [5], in the series on Plasmodium berghei [7], in the series on Plasmodium berghei [8], in the series on Plasmodium berghei [9] and with Plasmodium berghei [11] was Active. In [6], this compound showed a Cmax of 7120 ng/mL. For the same compound, the concentration for half-maximal inhibition (IC50) came out at 2.2 nM in the series on Plasmodium falciparum [10], 2 nM in the series on Plasmodium falciparum [2] and 2.6 nM with Plasmodium falciparum [13]. Moreover, the half-life in series [14] is 2.14 h. Further, in series [15], the Tmax turned out to be 2 h.

Consider `CCCc1cc(=O)oc2cc(C)cc(O[C@H](C)C(=O)N3Cc4[nH]c5ccccc5c4C[C@H]3C(=O)OC)c12`, for which the concentration for half-maximal inhibition (IC50) at 48 h in series [1] is above 3000 nM. Also, the values for the IC50 with Plasmodium falciparum [10], in the series on Plasmodium falciparum [2] and in the series on Plasmodium falciparum [13] were 2.1 nM, 1.9 nM and 1.9 nM, respectively.

For `CCCCc1cc(=O)oc2cc(C)cc(OCC(=O)N3Cc4[nH]c5ccccc5c4C[C@H]3C(=O)OC)c12`, the IC50 at 48 h in series [1] is above 3000 nM. Also, the IC50 with Plasmodium falciparum [10] is 24 nM; with Plasmodium falciparum [2], 20 nM; with Plasmodium falciparum [13] it was 20 nM.

In the case of `CCCCC(=O)c1c(OC)cc(C)cc1O[C@H](C)C(=O)N1Cc2[nH]c3ccccc3c2C[C@H]1C(=O)OC`, the IC50 at 48 h in [1] was above 3000 nM. The IC50 with Plasmodium falciparum [2] turned out to be 2400 nM.

With `CCCCc1cc(=O)oc2cc(C)cc(O[C@H](C)C(=O)N3Cc4[nH]c5ccccc5c4C[C@H]3C#N)c12`, the IC50 at 48 h in series [1] was above 3000 nM. In addition, the IC50 in the series with Plasmodium falciparum [2] worked out at 4.1 nM.

As for `CCCCc1cc(=O)oc2cc(C)cc(O[C@H](C)C(=O)N[C@@H](Cc3c[nH]c4ccccc34)C(=O)OC)c12`, the IC50 at 48 h in series [1] is above 3000 nM. Moreover, the half-inhibitory concentration (IC50) with Plasmodium falciparum [2] was 55 nM.

With `CCCCc1cc(=O)oc2cc(C)cc(OCC(=O)N3Cc4[nH]c5ccccc5c4C[C@H]3C(=O)NC)c12`, the IC50 at 48 h in series [1] is above 3000 nM. Further, the IC50 in the series on Plasmodium falciparum [2] was above 3000 nM.

Regarding `CCCCc1cc(=O)oc2cc(C)cc(OC(CC)C(=O)N3Cc4[nH]c5ccccc5c4C[C@H]3C(=O)OC)c12` (some centres undefined), the half-maximal inhibitory concentration (IC50) at 48 h in [1] was above 3000 nM. Further, the IC50 in the series on Plasmodium falciparum [2] was 7 nM.

As for `CCCCc1cc(=O)oc2cc(C)cc(OC(CCC)C(=O)N3Cc4[nH]c5ccccc5c4C[C@H]3C(=O)OC)c12` (some centres undefined), the IC50 at 48 h in series [1] was above 3000 nM. The half-inhibitory concentration (IC50) with Plasmodium falciparum [2] is 5.9 nM.

With `CCCCc1cc(=O)oc2cc(C)cc(O[C@@H](C)C(=O)N3Cc4[nH]c5ccccc5c4C[C@H]3C(=O)OC)c12`, in series [1], the IC50 at 48 h is above 3000 nM. Further, in the series on Plasmodium falciparum [2], the IC50 is 190 nM.
